Test system: Dog Coronary Artery
Experiment: Dog coronary artery test: relaxation of KCl-contracted coronary artery rings
Assay type: cell-based
Details: coronary artery rings contracted with 50 mM KCl, 37° C., IC50 = 50% relaxation, mean values, probit analysis; for IC50: Canis lupus familiaris
Description: Mongrel dogs of either sex and weighing 15 to 30 kg were anesthetized with pentobarbital (35 mg/kg). Each heart was quickly removed through a right thoracotomy and placed in Kreb's bicarbonate solution of the following composition (mM/L): NaCl, 118.2; KCl, 4.6; CaCl2.2H2 O, 1.6; KH2 PO4, 1.2; MgSO4.7H2 O, 1.2; NaHCO3, 24.8; and dextrose, 10.0. The medium was kept at room temperature and saturated with 95% O2 /5% CO2. The left anterior descending and circumflex coronary arteries were isolated and used either immediately or stored overnight at 5° C. Arteries were cut into rings approximately 2 to 3 mm wide, placed on 2 L-shaped hooks and mounted in a 10 ml organ bath by attaching one hook to a stationary glass rod and the other hook to a force-displacement transducer. Tissue medium consisted of Kreb's bicarbonate solution maintained at 37° C. and bubbled with 95 % O2 /5% CO2. Artery rings were equilibrated for 1-2 hours under a resting tension of 3 g. Tissue medium was then changed to one containing 50 mM KCl and 72.8 mM NaCl but otherwise identical to Kreb's bicarbonate solution. After tissues achieved a steady state contractile tension (1-2 hours) a given test agent was added to each bath and concentration-response curves determined. […] At the end of the concentration-response curve, tissue medium was changed to one identical to the 50 mM KCl buffer but containing 2.5 mM EGTA and no CaCl2.2H2 O to obtain complete relaxation of the tissue. Percent relaxation was then determined for each concentration and values producing 50% relaxation (IC50) were estimated using a probit analysis.

Row | -log IC50 | IC50 | SMILES
1 | 5.7 |  | CCC(C)OC(=O)C1=C(C)NC(C)=C(C(=O)OC)[C@@H]1c1csc2ccccc12 (stereo partly drawn) [Example 36, (S)-4-benzo[b]thien-3-yl-1,4-dihydro-2,6-dimethyl-3,5-pyridinedicarboxylicacid, methyl 1-methylpropyl ester]
2 |  | 81.3 nM | CCC(C)OC(=O)C1=C(C)NC(C)=C(C(=O)OC)[C@H]1c1csc2ccncc12 (stereo partly drawn) [Example 42, (R)-1,4-Dihydro-2,6-dimethyl-4-thieno[3,2-c]pyridin-3-yl-3,5-pyridinedicarboxylic acid, methyl 1-methylpropyl ester]
3 |  | 251 nM | CCCOC(=O)C1=C(C)NC(C)=C(C(=O)OCCC)C1c1csc2ccncc12 [Example 10, 1,4-Dihydro-2,6-dimethyl-4-thieno[3,2-c]pyridin-3-yl-3,5-pyridinedicarboxylic acid, dipropyl ester]
4 |  | 15.8 nM | COC(=O)C1=C(C)NC(C)=C(C(=O)OC(C)C)C1c1csc2ccncc12 (stereo not shown) [Example 20, 1,4-Dihydro-2,6-dimethyl-4-thieno[3,2-c]pyridin-3-yl-3,5-pyridinedicarboxylic acid, 3-methyl 5-isopropyl ester]
5 |  | 30.2 nM | CCOC(=O)C1=C(C)NC(C)=C(C(=O)OC)C1c1csc2ccncc12 (stereo not shown) [Example 33, 1,4-Dihydro-2,6-dimethyl-4-thieno[3,2-c]pyridin-3-yl-3,5-pyridinedicarboxylic acid, ethyl methyl ester]
6 |  | 33.1 nM | CC[C@H](C)OC(=O)C1=C(C)NC(C)=C(C(=O)OC)C1c1csc2ccncc12 (stereo partly drawn) [Example 40, 1,4-Dihydro-2,6-dimethyl-4-thieno[3,2-c]pyridin-3-yl-3,5-pyridinedicarboxylic acid, methyl(S)-1-methylpropyl ester]
7 |  | 7080 nM | CCOC(=O)C1=C(C)NC(C)=C(C(=O)OCC)C1c1c(Br)sc2ccccc12 [Example 23, 4-(2-Bromobenzo[b]thien-3-yl)-1,4-dihydro-2,6-dimethyl-3,5-pyridinedicarboxylic acid, diethyl ester]
8 |  | 1070 nM | CCCCOC(=O)C1=C(C)NC(C)=C(C(=O)OCCCC)C1c1csc2ccncc12 [Example 53, 1,4-Dihydro-2,6-dimethyl-4-thieno[3,2-c]pyridin-3-yl-3,5-pyridinedicarboxylic acid, dibutyl ester]
9 | 7.0 |  | CCOC(=O)C1=C(C)NC(C)=C(C(=O)OCCOC)C1c1csc2cccnc12 (stereo not shown) [Example 19, 1,4-Dihydro-2,6-dimethyl-4-thieno[3,2-]pyridin-3-yl-3,5-pyridinedicarboxylic acid, 3-ethyl 5-(2-methoxyethyl)ester]
10 |  | 40.7 nM | C=CCOC(=O)C1=C(C)NC(C)=C(C(=O)OC)C1c1csc2ccncc12 (stereo not shown) [Example 50, 1,4-Dihydro-2,6-dimethyl-4-thieno[3,2-c]pyridin-3-yl-3,5-pyridinecarboxylic acid, methyl 2-propenyl ester]
11 |  | 398 nM | CCOC(=O)C1=C(C)NC(C)=C(C(=O)OCC)C1c1c(C)sc2ccncc12 [Example 6, 1,4-Dihydro-2,6-dimethyl-4-(2-methylthieno[3,2-c]pyridin-3-yl)-3,5-pyridinedicarboxylic acid, diethyl ester]
12 |  | 646 nM | COC(=O)C1=C(C)NC(C)=C(C(=O)OC(C)(C)C)C1c1csc2ccncc12 (stereo not shown) [Example 45, 1,4-Dihydro-2,6-dimethyl-4-thieno[3,2-c]pyridin-3-yl-3,5-pyridinedicarboxylic acid, methyl 1,1-dimethylethyl ester]
13 | 7.1 |  | CCOC(=O)C1=C(C)NC(C)=C(C(=O)OCC)C1c1nccc2ccsc12 [Example 54, 1,4-Dihydro-2,6-dimethyl-4-thieno[2,3-c]pyridin-7-yl-3,5-pyridinedicarboxylic acid, diethyl ester]

Source: patent US4659717A, “Dihydropyridines useful in the treatment of angina and stroke” (Eli Lilly and Company, priority 1985, dated 1987)
